From ChEMBL document CHEMBL6083291, “Discovery of Thiochroman Derivatives as Potent, Oral Selective Estrogen Receptor Degraders and Antagonists for the Treatment of Endocrine-Resistant Breast Cancer” (J Med Chem, 2024)
pIC50: −log10 of the molar value. Each block holds one compound with its values, some of them ahead of it.

Tests used:
BT-474 = assay: Antiproliferative activity against human BT-474 cells assessed as reduction in cell viability
[1] = AUC(0 to t) in Sprague-Dawley rat plasma at 10 mg/kg, po measured for 24 hrs by LC-MS/MS analysis; format: ADME, organism-based
[2] = Antiproliferative activity against endocrine-resistant human MCF7 Tam1 cells assessed as inhibition of cell growth; conditions: Tamoxifen-resistant MCF7
[3] = Volume of distribution at steady state in Sprague-Dawley rat plasma at 2 mg/kg, iv measured for 24 hrs by LC-MS/MS analysis; format: ADME, organism-based; conditions: read-out: Vdss
MCF7 [4] = assay: Antiproliferative activity against human MCF7 cells harboring ER-alpha Y537S mutant assessed as inhibition of cell growth
[5] = AUC(0 to t) in Sprague-Dawley rat brain at 20 mg/kg, po measured for 10 hrs by LC-MS/MS analysis; format: ADME, organism-based; conditions: in vivo
[6] = Tmax in Sprague-Dawley rat plasma at 10 mg/kg, po measured for 24 hrs by LC-MS/MS analysis; format: ADME, organism-based
[7] = Cmax in Sprague-Dawley rat plasma at 20 mg/kg, po measured for 10 hrs by LC-MS/MS analysis; format: ADME, organism-based
[8] = Tmax in Sprague-Dawley rat brain at 20 mg/kg, po measured for 10 hrs by LC-MS/MS analysis; format: ADME, organism-based
[9] = Toxicity in Sprague-Dawley rat assessed as thickened endometrium in uterus at 10 mg/kg, po qd for 3 days by Hematoxylin-Eosin staining based analysis; format: organism-based; conditions: in vivo, 72 h, time 3 day
CAMA-1 = assay: Antiproliferative activity against human CAMA-1 cells assessed as reduction in cell viability
[10] = AUC(0 to t) in Sprague-Dawley rat plasma at 20 mg/kg, po measured for 10 hrs by LC-MS/MS analysis; format: ADME, organism-based
[11] = Clearance in Sprague-Dawley rat plasma at 2 mg/kg, iv measured for 24 hrs by LC-MS/MS analysis; format: ADME, organism-based
[12] = Cmax in Sprague-Dawley rat brain at 20 mg/kg, po measured for 10 hrs by LC-MS/MS analysis; format: ADME, organism-based
[13] = MRT in Sprague-Dawley rat plasma at 2 mg/kg, iv measured for 24 hrs by LC-MS/MS analysis; format: ADME, organism-based
animal or person [14] = conditions: Homo sapiens, Tamoxifen-resistant MCF7, po, 504 h, read-out: TGI
[15] = MRT in Sprague-Dawley rat plasma at 20 mg/kg, po measured for 10 hrs by LC-MS/MS analysis; format: ADME, organism-based
[16] = C0 in Sprague-Dawley rat plasma at 2 mg/kg, iv by LC-MS/MS analysis; format: ADME, organism-based
[17] = Cmax in Sprague-Dawley rat plasma at 10 mg/kg, po measured for 24 hrs by LC-MS/MS analysis; format: ADME, organism-based
[18] = Ratio of drug level in brain to plasma in Sprague-Dawley rat at 20 mg/kg, po measured for 10 hrs by LC-MS/MS analysis; format: ADME, organism-based; conditions: brain and plasma
[19] = Tmax in Sprague-Dawley rat plasma at 20 mg/kg, po measured for 10 hrs by LC-MS/MS analysis; format: ADME, organism-based
[20] = Half life in Sprague-Dawley rat plasma at 10 mg/kg, po measured for 24 hrs by LC-MS/MS analysis; format: ADME, organism-based
[21] = Half life in Sprague-Dawley rat plasma at 20 mg/kg, po measured for 10 hrs by LC-MS/MS analysis; format: ADME, organism-based
[22] = Half life in Sprague-Dawley rat plasma at 2 mg/kg, iv measured for 24 hrs by LC-MS/MS analysis; format: ADME, organism-based
[23] = MRT in Sprague-Dawley rat plasma at 10 mg/kg, po measured for 24 hrs by LC-MS/MS analysis; format: ADME, organism-based
animal or person [24] = conditions: Homo sapiens, Tamoxifen-resistant MCF7, po, 504 h, read-out: TGI; remark: listed apart in the source
MDA-MB-361 = assay: Antiproliferative activity against human MDA-MB-361 cells assessed as reduction in cell viability
[25] = Toxicity against Balb/c mouse xenografted with human MCF7 Tam1 cells assessed as changes in body weight at 10 to 30 mg/kg, po qd for 21 days; format: organism-based; conditions: in vivo, 504 h, dose 10-30 mg/kg, time 21 day
[26] = AUC(0 to t) in Sprague-Dawley rat plasma at 2 mg/kg, iv measured for 24 hrs by LC-MS/MS analysis; format: ADME, organism-based
MCF7 [27] = assay: Antiproliferative activity against human MCF7 cells assessed as reduction in cell viability incubated for 6 days by CellTiter-Glo reagent based luminescence analysis; conditions: mcf7
[28] = Half life in Sprague-Dawley rat brain at 20 mg/kg, po measured for 10 hrs by LC-MS/MS analysis; format: ADME, organism-based
[29] = MRT in Sprague-Dawley rat brain at 20 mg/kg, po measured for 10 hrs by LC-MS/MS analysis; format: ADME, organism-based
T47D = assay: Antiproliferative activity against human T47D cells assessed as reduction in cell viability
[30] = Oral bioavailability in Sprague-Dawley rat at 10 mg/kg measured for 24 hrs by LC-MS/MS analysis; format: ADME, organism-based; conditions: in vivo
[31] = Ratio of drug level in brain to plasma in mouse; format: ADME; conditions: brain and plasma

SMILES: COc1cc(F)ccc1[C@H]1CSc2cc(O)ccc2[C@H]1c1ccc(OCCN2CC(CF)C2)cc1
pIC50 (BT-474): 8.40
AUC(0-t) at 24 h [1]: 1360 ng·h/mL
pIC50 [2]: 8.27
Vd [3]: 6.6 L/kg
pIC50 (MCF7 [4]): 7.97
AUCt [5]: 11170 ng·h/g
Tmax [6]: 3 h
Cmax [7]: 509 ng/mL
Tmax [8]: 6 h
Activity [9]: Non-toxic
pIC50 (CAMA-1): 8.40
AUC(0-t) at 10 h [10]: 3660 ng·h/mL
clearance [11]: 23.3 mL/min/kg
Cmax [12]: 1470 ng/g
MRT [13]: 5.24 h
inhibition in vivo at 30 mg/kg (animal or person [14]): 64.5%
MRT [15]: 10.6 h
C0 [16]: 741 ng/mL
Cmax [17]: 198 ng/mL
Kp at 10 h [18]: 3.05
Tmax [19]: 6 h
half-life [20]: 8.9 h
half-life [21]: 5.6 h
half-life [22]: 4 h
MRT [23]: 13.4 h
inhibition in vivo at 10 mg/kg (animal or person [24]): 26.8%
pIC50 (MDA-MB-361): ~7.82
Activity [25]: Non-toxic
AUC(0-t) at 24 h [26]: 1370 ng·h/mL
pIC50 (MCF7 [27]): 9.60
half-life [28]: 7 h
MRT [29]: 12.4 h
pIC50 (T47D): 8.40
bioavailability [30]: 19.9%

Kp [31]: 0.36
SMILES: CCNCCc1ccc(CN(CC)c2cc(OC)ccc2[C@@H]2CCc3cc(O)ccc3C2)cc1 [ELACESTRANT]
